Measurements reported in patent publication US7892767B2, “Phosphospecific chemokine receptor antibodies” (Washington University in St. Louis, priority 2005, dated 2011).

Legend:
[1] = system: Daoy xenografts; conditions: systemic delivery, reference (3); cited from earlier work
[2] = system: U87 GBM xenografts; conditions: systemic delivery, reference (3); cited from earlier work
[3] = reference (94), cited from earlier work
[4] = system: Nf1+/+ astrocytes; experiment: Cell number by trypan blue exclusion, Nf1+/+ astrocytes; assay type: cell-based, mouse; conditions: data not shown
Experimental: (§1) Culture and treatment of primary astrocytes. Primary cultures of astrocytes were prepared from post-natal day two Nf1^flox/flox mice as previously described (134) and in accordance with established Animal Studies Protocols at Washington University School of Medicine. Cultures were infected with adenovirus containing either Cre recombinase (Nf1−/−) or LacZ (Nf1+/+). Primary cultures of astrocytes were grown under standard adherent conditions in serum free media (DMEM/F12 or Neurobasal (Gibco-BRL)) in the presence or absence of 0.1 μg/ml CXCL12 (Peprotech) and 10 μM Forskolin for 24 hours, as indicated. Cell number was determined after 24 hours by trypan blue exclusion and the growth effects of CXCL12 were derived as follows: ((cell number in the presence of CXCL12—cell number cell in the absence of CXCL12)/cell number in the absence of CXCL12)×100.)
(§2) To determine the biological significance of CXCR4 activation to NF1 glioma biology, we next sought to evaluate the regulation of CXCL12 growth effects by neurofibromin in astrocytes. While the true cell of origin of astrocytomas remains unknown, we utilized primary cultures of cortical astrocytes as a model of a normal counterpart to astrocytoma cells. Astrocytes were derived from Nf1^flox/flox mice and rendered Nf1+/+ or Nf1−/− by infection with adenovirus encoding LacZ or Cre recombinase, respectively.

[5] = system: Nf1−/− astrocytes; experiment: Cell number by trypan blue exclusion, Nf1−/− astrocytes; assay type: cell-based, mouse; conditions: data not shown
Experimental: as §1, §2

[6] = biological target: CXCR4 (Homo sapiens, UniProt P61073); experiment: Stimulated CXCR4 phosphorylation in LN428 GBM cells (western blot); assay type: cell-based; set-up: lysates from the glioblastoma cell line LN428, which is known to express high levels of CXCR4; endogenous in cells; host or cells: LN428 GBM cell line
Experimental: Cell Culture, transfections and stimulation of CXCR4 phosphorylation. The U87 glioblastoma multiforme (GBM, grade IV) cell line was obtained from the American Type Culture Collection. The LN428 GBM cell line was a kind gift of Dr Erwin van Meir (Winship Cancer Center, Emory University, Atlanta, Ga.). U87 cells were grown in minimum essential a media supplemented with 10% fetal bovine serum ((FBS), Biomedia, Foster City, Calif.). LN428 cells were grown in DMEM (Fisher, Pittsburgh, Pa.) supplemented with 10% horse serum (Sigma). All cells were grown in the presence of penicillin-streptomycin. The coding sequence for human CXCR4 was obtained by high fidelity RT-PCR (Superscript III Platinum, Invitrogen), and cloned into the expression vector pMSCVneo (Clontech, Palo Alto, Calif.). Transfections were performed with 0.3 μg of plasmid DNA in 20 μl Lipofectamine (Invitrogen)/35 mm^2 tissue culture dish for 9 hours according to the manufacturer's instructions. Cells recovered in Optimem supplemented with 10% FBS. Transfected and non-transfected cells were placed in serum free media for 24 hours prior to treatment with agents to stimulate CXCR4 phosphorylation. Treatment was usually for 0 or 10 minutes with 1 μg/ml CXCL12 (Peprotech, Rocky Hill N.J.), 4 μM 4-Phorbol 12-myristate 13-acetate (PMA) or 10 nM EGF. In some experiments, CXCL12 was washed away and cells were incubated for an additional 20 minutes in serum free media alone.
Western Blot Analysis. Whole-cell extracts were obtained by lysing cells with lysis buffer (20 mM Tris pH 7.4, 137 mM NaCl, 10% Glycerol and 1% Triton X-100) supplemented with phosphatase inhibitor cocktail set II (Calbiochem, La Jolla, Calif.) and protease inhibitors PMSF (1 mM), leupeptin (0.005 mg/ml) and aprotonin (0.005 mg/ml). The proteins (50-75 μg) were resolved with 10% Bis-Tris gels (Invitrogen) and transferred onto the nitrocellulose membrane Hybond ECL (Amersham, Piscataway, N.J.) according to standard protocols. Polyclonal anti-CXCR4 antibody was used at a 1:500 dilution and P338-CXCR4 and P339-CXCR4 directed antibodies were used at 1:100 dilutions overnight at 4° C. This was followed by incubation with horseradish peroxidase-conjugated secondary antibody (1:15,000; Bio-Rad). Peroxide activity was detected using the enhanced chemiluminescence Supersignal West Dura system (Pierce, Rockford, Ill.). Mouse anti-actin antibody at a concentration of 1:1500 was used as a loading control. Peptide competitions and lambda phosphatase treatment were performed as described above.
The utility of these antibodies for evaluating the relationship between ligand binding and CXCR4 function is dependent upon their ability to distinguish a ligand activated form of the receptor. Serum starvation increased CXCL12 responsiveness (data not shown), and for all of these experiments LN428 GBM cells were serum starved for 24 hours prior to CXCL12 treatment. Serum starved LN428 cells were treated with 1 μg/ml CXCL12 for 0 or 10 minutes and the abundance of phospho-CXCR4 was determined by western blot and immuno-localization in fixed cells. […] A similar CXCL12-induced increase in P339-CXCR4 (FIG. 3B), but not P338-CXCR4 (data not shown) immunoreactivity was seen by immunofluorescent analysis of paraformaldehyde fixed cells. After 10 minutes of exposure to CXCL12, P339-CXCR4 can be seen localized to the surface of LN428 cells (FIG. 3B). CXCL12 was then washed away and cells were incubated in its absence for an additional 20 minutes. Surface labeling declined as a function of time and P339-CXCR4 was seen accumulating intracellularly.
Whether this is the only kinase that can phosphorylate these residues is unclear. The observation that protein kinase C (PKC) stimulated CXCR4 internalization also depends upon phosphorylation of this region of the molecule raises the question of whether these sites might also be PKC phosphorylation sites (17, 19, 27, 28). […]

[7] = system: Nf1−/− astrocytes; experiment: Intracellular cAMP by ELISA, Nf1−/− astrocytes; assay type: cell-based, mouse
Experimental: (§3) cAMP measurements. cAMP was measured by ELISA (Cayman Chemical Company, Ann Arbor, Mich. or Assay Designs, Ann Arbor, Mich.). Briefly, astrocyte cultures were lysed in 0.1 N HCl. After the removal of cellular debris, soluble cellular extract was dried down and resuspended in EIA buffer. Experimental samples and cAMP standard curve were acetylated to increase the sensitivity of the assay and incubated with cAMP ACHe tracer and cAMP EIA anti-serum overnight at 4° C. according to the manufacturer's instructions. After extensive washing, bound antibody was measured by spectrophotometric analysis. Concentrations of cAMP were derived from comparison with standard curve according to manufacturer's instructions.
(§4) We evaluated the time dependent changes in intracellular cAMP in Nf1+/+ and Nf1−/− astrocytes after exposure to 0.1 μg/ml CXCL12. […] However, in Nf1+/+ astrocytes, intracellular levels of cAMP rapidly recovered to baseline and oscillated between baseline and 40% of baseline over the 45-minute experimental period (FIG. 10B).
(§5) We hypothesized that if cooperative signaling between Nf1 loss and CXCR4 activation promotes tumor formation through the suppression of cAMP, then agents that alter intracellular cAMP should modulate CXCL12 responses. We treated astrocytes with the adenylyl cyclase (AC) activator forskolin in the presence and absence of CXCL12. […] In these experiments, forskolin elevated intracellular cAMP levels in both Nf1+/+ and Nf1−/− astrocytes with peak values of 17.8+/−0.4 and 19.4+/−4.5 pmol/mg of protein, respectively, after 24 hours of treatment. The effect of forskolin was not abrogated by co-treatment with CXCL12. Under these conditions, cAMP levels were 17.9+/−2.5 and 10.4+/−5.8 pmol/mg of total protein in Nf1+/+ and Nf1−/− astrocytes, respectively. […] The effect of forskolin on CXCL12-mediated Nf1−/− apoptosis was evidenced by changes in the percentage of Nf1−/− astrocytes in the sub-G0 fraction of the cell cycle (FIG. 11B). Thus while astrocyte growth is dependent upon MEK and PI3 kinase activity, CXCL12-induced Nf1−/− astrocyte growth requires the suppression of intracellular cAMP levels.

[8] = system: Nf1+/+ astrocytes; experiment: Intracellular cAMP by ELISA, Nf1+/+ astrocytes; assay type: cell-based, mouse
Experimental: as §3, §4, §5

[9] = 1 μg/ml CXCL12, 4 μM PMA or 10 nM EGF
[10] = forskolin 10 μM co-treatment with CXCL12 0.1 μg/ml

Sequence of CXCR4 (P61073 whole entry): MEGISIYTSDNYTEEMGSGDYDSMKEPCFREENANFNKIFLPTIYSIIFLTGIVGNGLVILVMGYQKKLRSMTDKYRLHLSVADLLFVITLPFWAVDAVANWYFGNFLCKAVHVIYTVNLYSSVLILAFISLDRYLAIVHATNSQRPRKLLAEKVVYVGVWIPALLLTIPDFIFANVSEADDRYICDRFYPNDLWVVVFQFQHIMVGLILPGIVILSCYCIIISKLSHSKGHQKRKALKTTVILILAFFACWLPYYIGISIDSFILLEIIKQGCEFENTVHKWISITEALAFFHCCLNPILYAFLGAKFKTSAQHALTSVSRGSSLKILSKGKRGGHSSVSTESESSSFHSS

Structure (SMILES): c1cc(CN2CCCNCCNCCCNCC2)ccc1CN1CCCNCCNCCCNCC1 [AMD 3100]
- intracranial growth of medulloblastoma xenografts [1]: blocked the intracranial growth
- intracranial growth of glioblastoma xenografts [2]: blocked the intracranial growth
- toxicities ([3]; sustained dosing over a 10 day period): mild toxicities
- white blood cell counts ([3]; throughout an 18 day follow-up period after cessation): elevations of white blood cell counts

Structure (SMILES): COc1cccc(-c2cc(=O)c3ccccc3o2)c1N [PD98059]
- astrocyte growth [4]: prevented growth
- astrocyte growth [5]: prevented growth

Structure (SMILES): CCCCCCCCCCCCCC(=O)O[C@@H]1[C@@H](C)[C@@]2(O)[C@@H](C=C(CO)C[C@]3(O)C(=O)C(C)=C[C@@H]23)[C@@H]2C(C)(C)[C@]12OC(C)=O [PMA, 4-Phorbol 12-myristate 13-acetate]
- P338 phosphorylation stimulated [6, 9]: not
- P339 phosphorylation [6, 9]: stimulated
- P339-CXCR4 immunoreactivity compared with response to CXCL12 ([6]; 4 μM PMA or 10 nM EGF): greater

Structure (SMILES): C=C[C@@]1(C)CC(=O)[C@]2(O)[C@@]3(C)[C@@H](O)CCC(C)(C)[C@@H]3[C@H](O)[C@H](OC(C)=O)[C@@]2(C)O1 [forskolin]
- cAMP levels [7, 10]: 10.4+/−5.8 pmol/mg of total protein
- peak intracellular cAMP ([7]; forskolin 10 μM, 24 hours): 19.4+/−4.5 pmol/mg of protein
- cAMP levels [8, 10]: 17.9+/−2.5 pmol/mg of total protein
- peak intracellular cAMP ([8]; forskolin 10 μM, 24 hours): 17.8+/−0.4 pmol/mg of protein
